Measured values taken from ChEMBL document CHEMBL1129525 (J Med Chem, 1996).

Tests used:
Toxoplasma gondii = test: Inhibition of Toxoplasma gondii cell growth; type: functional, organism-based
Dihydrofolate reductase [1] = target: T1, Dihydrofolate reductase (Rattus norvegicus, UniProt Q920D2)
T1 sequence (Q920D2 whole entry): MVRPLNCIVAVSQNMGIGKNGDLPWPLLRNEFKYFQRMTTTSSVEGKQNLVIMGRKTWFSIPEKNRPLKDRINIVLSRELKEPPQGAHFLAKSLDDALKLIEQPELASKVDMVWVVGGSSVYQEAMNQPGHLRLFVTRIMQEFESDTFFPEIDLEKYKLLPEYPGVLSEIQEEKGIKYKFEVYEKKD
Description: Inhibitory activity against rat liver dihydrofolate reductase

Dihydrofolate reductase [2] = target: T2, Dihydrofolate reductase (Pneumocystis carinii, UniProt P16184)
T2 sequence (P16184 whole entry): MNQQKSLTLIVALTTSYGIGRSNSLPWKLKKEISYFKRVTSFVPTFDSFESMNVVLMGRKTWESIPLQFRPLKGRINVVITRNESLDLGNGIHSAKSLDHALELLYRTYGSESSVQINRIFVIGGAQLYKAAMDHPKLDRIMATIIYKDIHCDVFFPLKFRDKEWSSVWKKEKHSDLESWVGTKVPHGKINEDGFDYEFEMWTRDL
Description: Inhibitory activity against Pneumocystis carinii dihydrofolate reductase

[3] = target: T3, Bifunctional dihydrofolate reductase-thymidylate synthase (Toxoplasma gondii, UniProt Q07422)
T3 sequence (Q07422 whole entry): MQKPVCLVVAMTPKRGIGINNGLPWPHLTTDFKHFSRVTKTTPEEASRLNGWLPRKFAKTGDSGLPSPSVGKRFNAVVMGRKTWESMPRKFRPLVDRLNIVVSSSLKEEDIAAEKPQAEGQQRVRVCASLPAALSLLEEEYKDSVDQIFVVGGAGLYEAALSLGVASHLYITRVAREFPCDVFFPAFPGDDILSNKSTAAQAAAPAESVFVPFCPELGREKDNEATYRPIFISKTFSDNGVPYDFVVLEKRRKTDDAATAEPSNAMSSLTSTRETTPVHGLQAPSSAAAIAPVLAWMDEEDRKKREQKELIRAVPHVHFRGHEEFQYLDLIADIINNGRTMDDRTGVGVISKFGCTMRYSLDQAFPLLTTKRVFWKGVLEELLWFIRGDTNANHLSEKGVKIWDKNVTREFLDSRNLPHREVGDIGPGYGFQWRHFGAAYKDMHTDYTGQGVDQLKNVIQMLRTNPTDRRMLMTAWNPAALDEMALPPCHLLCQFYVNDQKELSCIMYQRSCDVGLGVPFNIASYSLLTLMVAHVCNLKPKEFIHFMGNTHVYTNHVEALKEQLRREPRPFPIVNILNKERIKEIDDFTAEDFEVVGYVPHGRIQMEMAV
Description: Inhibitory activity against Toxoplasma gondii dihydrofolate reductase

Compound	IC50 (Dihydrofolate reductase [1])	IC50 (Dihydrofolate reductase [2])	IC50 (Toxoplasma gondii)	IC50 [3]
Nc1nc(N)c2nc(CSc3cccc4ccccc34)cnc2n1	8200 nM	4200 nM	3000 nM	7000 nM
COc1ccc(OC)c(N(C)Cc2cnc3nc(N)nc(N)c3n2)c1	470 nM	3900 nM	1600 nM	210 nM
COc1cc(OC)cc(N(C)Cc2cnc3nc(N)nc(N)c3c2C)c1	13 nM	50 nM	10 nM	4 nM
Nc1nc(N)c2nc(CNc3ccc(Cl)cc3)cnc2n1	300 nM	1500 nM	700 nM	590 nM
Nc1nc(N)c2cc(CNc3cccc4ccccc34)cnc2n1	230 nM	260 nM	800 nM	150 nM
COc1ccc(C(F)(F)F)cc1N(C)Cc1cnc2nc(N)nc(N)c2c1C	230 nM	93 nM	200 nM	38 nM
Nc1nc(N)c2cc(CNc3ccc(Cl)cc3)ccc2n1	73 nM	600 nM	10 nM	75 nM
COc1ccc(SCc2cnc3nc(N)nc(N)c3n2)cc1	10200 nM	17200 nM	3000 nM	14000 nM
Nc1nc(N)c2cc(CNc3cccc4ccccc34)ccc2n1	55 nM	210 nM	60 nM	27 nM
Cc1cc(Cl)ccc1NCc1ccc2nc(N)nc(N)c2c1	23 nM	330 nM	200 nM	33 nM
COc1ccc(SCc2cnc3nc(N)nc(N)c3c2C)cc1OC	180 nM	150 nM	5000 nM	30 nM
COc1ccc(SCc2cnc3nc(N)nc(N)c3n2)cc1OC	36300 nM	58200 nM	5000 nM	23200 nM
COc1cc(NCc2cnc3nc(N)nc(N)c3c2)cc(OC)c1OC	810 nM		15000 nM	130 nM
COc1ccc(OC)c(NCc2cnc3nc(N)nc(N)c3n2)c1	22900 nM	6200 nM	5000 nM	6900 nM
Cc1ccc(SCc2cnc3nc(N)nc(N)c3n2)cc1	26000 nM		5000 nM	15000 nM
COc1ccc(OC)c(NCc2ccc3nc(N)nc(N)c3c2)c1	460 nM	750 nM	600 nM	140 nM
COc1cc(NCc2cnc3nc(N)nc(N)c3n2)cc(OC)c1OC	1900 nM	7000 nM	11000 nM	1000 nM
COc1cc(NCc2cnc3nc(N)nc(N)c3n2)cc(C(F)(F)F)c1	1900 nM	680 nM	1000 nM	890 nM
Nc1nc(N)c2cc(CNc3ccc(Cl)cc3)cnc2n1	720 nM	970 nM	4000 nM	300 nM

Continued, in another order:

IC50 (Dihydrofolate reductase [1])	IC50 (Dihydrofolate reductase [2])	Compound	IC50 (Toxoplasma gondii)	IC50 [3]
370 nM	360 nM	Cc1c(CSc2ccc(Cl)cc2)cnc2nc(N)nc(N)c12	300 nM	90 nM
10 nM	11 nM	COc1ccc(OC)c(NCc2cnc3nc(N)nc(N)c3c2C)c1	200 nM	14 nM
140 nM	150 nM	Cc1c(CN(C)c2cccc3c2CCCC3)cnc2nc(N)nc(N)c12	20 nM	16 nM
330 nM	170 nM	Cc1cccc(SCc2cnc3nc(N)nc(N)c3c2C)c1	200 nM	65 nM
135 nM	64 nM	Cc1c(CCc2cccc3ccccc23)cnc2nc(N)nc(N)c12	100 nM	26 nM
7700 nM	9900 nM	COc1cccc(SCc2cnc3nc(N)nc(N)c3n2)c1	5000 nM	1600 nM
29 nM	170 nM	COc1ccc(NCc2cnc3nc(N)nc(N)c3c2C)c(C)c1	600 nM	7.2 nM
120 nM	30 nM	Cc1ccc(C)c(NCc2cnc3nc(N)nc(N)c3c2C)c1	10 nM	16 nM
72 nM	110 nM	Cc1c(CNc2ccc(Cl)cc2)cnc2nc(N)nc(N)c12	150 nM	32 nM
